Where a name gives a salt, the structure may show the parent alone. Read-outs that look alike come from different tables or passages of the source.
Legend:
human BACE-2 = human BACE-2 (Homo sapiens (Human), UniProt Q9Y5Z0); experiment: Test 2: Inhibition of human BACE-2; type: biochemical
Description: Test 2: Inhibition of Human BACE-2

human BACE-1 = human BACE-1 (Homo sapiens (Human), UniProt P56817); experiment: Test 1: Inhibition of human BACE-1
[1] = mean IC50, recombinant BACE-2, acetate buffer pH 4.5, fluorescence-quenched peptide substrate, read-out: BACE-2 IC50
[2] = read-out: BACE-1 IC50, mean IC50, recombinant BACE-1, acetate buffer pH 4.5, fluorescence-quenched peptide substrate

Sequence of human BACE-1 (P56817 46-457): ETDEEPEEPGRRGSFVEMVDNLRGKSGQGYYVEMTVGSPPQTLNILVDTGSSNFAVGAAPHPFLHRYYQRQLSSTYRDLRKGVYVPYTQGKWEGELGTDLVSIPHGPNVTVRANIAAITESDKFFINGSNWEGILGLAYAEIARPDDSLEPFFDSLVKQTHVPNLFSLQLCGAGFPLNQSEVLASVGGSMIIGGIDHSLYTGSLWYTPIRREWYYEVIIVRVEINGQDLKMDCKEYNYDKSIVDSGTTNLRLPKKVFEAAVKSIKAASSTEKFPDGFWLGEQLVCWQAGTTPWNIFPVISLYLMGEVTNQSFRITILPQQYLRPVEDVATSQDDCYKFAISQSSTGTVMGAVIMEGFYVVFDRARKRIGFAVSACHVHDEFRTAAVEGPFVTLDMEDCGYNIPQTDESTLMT
Sequence of human BACE-2 (Q9Y5Z0 63-473): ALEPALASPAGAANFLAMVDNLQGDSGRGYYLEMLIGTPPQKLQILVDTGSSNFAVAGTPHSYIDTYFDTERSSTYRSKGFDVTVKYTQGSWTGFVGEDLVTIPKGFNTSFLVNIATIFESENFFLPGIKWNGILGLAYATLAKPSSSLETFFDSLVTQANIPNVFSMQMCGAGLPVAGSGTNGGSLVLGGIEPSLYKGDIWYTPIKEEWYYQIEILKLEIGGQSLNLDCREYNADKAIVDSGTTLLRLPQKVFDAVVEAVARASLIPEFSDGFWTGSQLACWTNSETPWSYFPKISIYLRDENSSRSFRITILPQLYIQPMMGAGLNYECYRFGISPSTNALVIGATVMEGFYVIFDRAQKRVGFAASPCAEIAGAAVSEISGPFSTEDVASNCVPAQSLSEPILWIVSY

IC50 (human BACE-2; [1]) | IC50 (human BACE-1; [2]) | SMILES | IC50 (human BACE-2) | IC50 (human BACE-1)
41 nM | 10 nM | C[C@@]1(c2cccc(NC(=O)c3ncc(C#N)cc3Cl)n2)CO[C@@](C)(C(F)(F)F)C(N)=N1 [Example 20, 3-Chloro-5-cyano-pyridine-2-carboxylic acid [6-((3R,6R)-5-amino-3,6-dimethyl-6-trifluoromethyl-3,6-dihydro-2H-[1,4]oxazin-3-yl)-pyridin-2-yl]-amide] |  | 
130 nM | 140 nM | NC1=NC(CF)(c2cc(NC(=O)c3ccc(Br)cn3)cnc2Cl)COC1 (centres unmarked) [Example 18, 5-Bromo-pyridine-2-carboxylic acid [5-(5-amino-3-fluoromethyl-3,6-dihydro-2H-[1,4]oxazin-3-yl)-6-chloro-pyridin-3-yl]-amide hydrochloride] |  | 
280 nM | 410 nM | C[C@@]1(c2cc(NC(=O)c3ncc(OC(F)F)cc3Cl)ncc2F)CO[C@@](C)(C(F)(F)F)C(N)=N1 [Example 36, 3-Chloro-5-difluoromethoxy-pyridine-2-carboxylic acid [4-((3R,6R)-5-amino-3,6-dimethyl-6-trifluoromethyl-3,6-dihydro-2H-[1,4]oxazin-3-yl)-5-fluoro-pyridin-2-yl]-amide] |  | 
82 nM | 43 nM | C[C@@]1(c2cccc(NC(=O)c3ncc(C#N)cc3N)n2)CO[C@@](C)(C(F)(F)F)C(N)=N1 [Example 19, 3-Amino-5-cyano-pyridine-2-carboxylic acid [6-((3R,6R)-5-amino-3,6-dimethyl-6-trifluoromethyl-3,6-dihydro-2H-[1,4]oxazin-3-yl)-pyridin-2-yl]-amide] |  | 
 |  | [2H]c1nc(C(=O)Nc2cc(C3(CF)COCC(N)=N3)ccn2)c(C([2H])([2H])[2H])c([2H])c1Cl (centres unmarked) [Example 13, 5-{2-[(5-Chloro-4,6-dideutero-3-trideuteromethyl-pyridine-2-carbonyl)-amino]-pyridin-4-yl}-5-fluoromethyl-5,6-dihydro-2H-[1,4]oxazin-3-yl-ammonium acetate] | 1500 nM | 
15 nM | 93 nM | COc1cnc(C(=O)Nc2ccc(F)c([C@]3(C)CO[C@@](C)(C(F)(F)F)C(N)=N3)n2)c(C)c1 [Example 25, 5-Methoxy-3-methyl-pyridine-2-carboxylic acid [6-((3R,6R)-5-amino-3,6-dimethyl-6-trifluoromethyl-3,6-dihydro-2H-[1,4]oxazin-3-yl)-5-fluoro-pyridin-2-yl]amide] |  | 
 | 6200 nM | C[C@]1(c2cccc(NC(=O)c3ccc(C#N)cn3)n2)CO[C@@](C)(C(F)(F)F)C(N)=N1 [Example 9, 5-Cyano-pyridine-2-carboxylic acid [6-((3S,6R)-5-amino-3,6-dimethyl-6-trifluoromethyl-3,6-dihydro-2H-[1,4]oxazin-3-yl)-pyridin-2-yl]-amide hydrochloride] |  | 
 | 39 nM | C[C@@]1(c2cccc(NC(=O)c3ccc(C#N)cn3)n2)CO[C@@](C)(C(F)(F)F)C(N)=N1 [Example 10, 5-Cyano-pyridine-2-carboxylic acid [6-((3R,6R)-5-amino-3,6-dimethyl-6-trifluoromethyl-3,6-dihydro-2H-[1,4]oxazin-3-yl)-pyridin-2-yl]-amide] |  | 

SMILES | IC50 (human BACE-2; [1]) | IC50 (human BACE-1; [2]) | IC50 (human BACE-2) | IC50 (human BACE-1)
NC(=S)c1ccc(C(=O)Nc2cccc(C3(CF)COCC(N)=N3)n2)nc1 (centres unmarked) [Example 7, 5-{6-[(5-Thiocarbamoyl-pyridine-2-carbonyl)-amino]-pyridin-2-yl}-5-fluoromethyl-5,6-dihydro-2H-[1,4]oxazin-3-yl-ammonium trifluoro-acetate] | 8700 nM | 2100 nM |  | 
C[C@@]1(c2nc(NC(=O)c3nc4ccn(CC(F)F)c4cc3Cl)ccc2F)CO[C@@](C)(C(F)(F)F)C(N)=N1 [Example 47, 6-Chloro-1-(2,2-difluoro-ethyl)-1H-pyrrolo[3,2-b]pyridine-5-carboxylic acid [6-((3R,6R)-5-amino-3,6-dimethyl-6-trifluoromethyl-3,6-dihydro-2H-[1,4]oxazin-3-yl)-5-fluoro-pyridin-2-yl]-amide] | 5400 nM |  |  | > 10000 nM
